Test results reported in patent USRE48335E1, “Polymyxin derivatives as antimicrobial compounds” (priority 2014, dated 2020).
In brackets after ≈: the same amount, converted by molar mass. Positions of bridges follow the written chain, without caps; N, C: chain ends. Non-standard residues stand in square brackets, D forms with d. Residues, ends and D or L forms follow the SMILES beside them. *: point of attachment. Heptanoyl(6-Me) = CC(C)CCCCC(=O)*; Nonanoyl = CCCCCCCCC(=O)*; X1 = CC[C@H](C)CCCCC(=O)*; Heptanoyl = CCCCCCC(=O)*; Octanoyl = CCCCCCCC(=O)*; Dab = NCC[C@H](N)C(=O)O; Abu = CC[C@H](N)C(=O)O; Dap = NC[C@H](N)C(=O)O

Legend:
Pseudomonas aeruginosa = tested on: Pseudomonas aeruginosa
How it was run: (§1)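 Minimum inhibitory concentrations come from CLSI-standard broth microdilution in cation-adjusted Mueller-Hinton broth.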

Klebsiella pneumoniae = tested on: Klebsiella pneumoniae
How it was run: as §1

Acinetobacter baumannii = tested on: Acinetobacter baumannii
How it was run: as §1

Enterobacter cloacae = tested on: Enterobacter cloacae
How it was run: as §1

[1] = tested on: K. pneumoniae FADDI-KP032; experiment: In vivo efficacy in mouse blood infection model (neutropenic Swiss mice); settings: compound, free base 4 mg/kg intravenously 2 h after inoculation, blood at 4 h
How it was run: (§2)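 Neutropenic Swiss mice (cyclophosphamide 150 mg/kg day −4, 100 mg/kg day −1, i.p.) infected i.v. with early log-phase bacteria; 4 mg/kg free base i.v. given 2 h post-inoculation. Blood CFU by cardiac puncture 4 h post-dose; Δlog10 CFU/mL treated versus saline controls.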

P. aeruginosa ATCC 27853 = experiment: as above; settings: compound, free base 4 mg/kg intravenously 2 h after inoculation, blood at 4 h
How it was run: as §2

A. baumannii ATCC 19606 = experiment: as above; settings: compound, free base 4 mg/kg intravenously 2 h after inoculation, blood at 4 h
How it was run: as §2

Compound | MIC (Pseudomonas aeruginosa) | Minimum inhibitory concentration, Pa ATCC 27853 (Pseudomonas aeruginosa) | Minimum inhibitory concentration, Pa FADDI-PA022 (Pseudomonas aeruginosa) | Minimum inhibitory concentration, Pa FADDI-PA025 (Pseudomonas aeruginosa) | MIC (Klebsiella pneumoniae) | MIC (Acinetobacter baumannii) | Minimum inhibitory concentration, Ab A ATCC 17978 (Acinetobacter baumannii) | Minimum inhibitory concentration, Ab ATCC 19606 (Acinetobacter baumannii) | Δ log (Treated-Control at 4 h) [1] | Δ log (Treated-Control at 4 h) (P. aeruginosa ATCC 27853) | Δ log (Treated-Control at 4 h) (A. baumannii ATCC 19606) | Minimum inhibitory concentration (MIC), Pa ATCC 27853 (Pseudomonas aeruginosa) | Minimum inhibitory concentration (MIC), Pa FADDI-PA022 (Pseudomonas aeruginosa) | Minimum inhibitory concentration (MIC), Pa FADDI-PA025 (Pseudomonas aeruginosa) | Minimum inhibitory concentration (MIC), Ab ATCC 17978 (Acinetobacter baumannii) | Minimum inhibitory concentration (MIC), Ab ATCC 19606 (Acinetobacter baumannii) | Minimum inhibitory concentration (MIC), Ab FADDI-AB034 (Acinetobacter baumannii) | Minimum inhibitory concentration (MIC), Ec FADDI-EC001 (Enterobacter cloacae) | Minimum inhibitory concentration (MIC), Ec FADDI-EC003 (Enterobacter cloacae) | Minimum inhibitory concentration (MIC), Ec FADDI-EC006 (Enterobacter cloacae) | further results
CCCCCCCC(=O)N[C@@H](CCN)C(=O)N[C@H](C(=O)N[C@@H](CN)C(=O)N[C@H]1CCNC(=O)[C@H]([C@@H](C)O)NC(=O)[C@H](CCN)NC(=O)[C@H](CCN)NC(=O)[C@H]([C@@H](C)O)NC(=O)[C@@H](Cc2ccccc2)NC(=O)[C@H](CCN)NC1=O)[C@@H](C)O [Compound 129] (Octanoyl-[Dab]T[Dap][Dab][Dab][dF]T[Dab][Dab]T; lactam 4-C) | 0.5 µg/mL (≈ 0.43 µM) | 0.5 µg/mL (≈ 0.43 µM) | 1 µg/mL (≈ 0.86 µM) | 2 µg/mL (≈ 1.72 µM) | <0.125 µg/mL | 0.5 µg/mL (≈ 0.43 µM) | 0.25 µg/mL (≈ 0.215 µM) | 0.5 µg/mL (≈ 0.43 µM) | −3.64 log10 CFU/mL | −3.45 log10 CFU/mL | −1.42 log10 CFU/mL | – | – | – | – | – | – | – | – | – | Minimum inhibitory concentration, Ab FADDI-AB034 (Acinetobacter baumannii): 0.25 µg/mL (≈ 0.215 µM); Minimum inhibitory concentration, Ec FADDI-EC001 (Enterobacter cloacae): 0.5 µg/mL (≈ 0.43 µM); Minimum inhibitory concentration, Ec FADDI-EC003 (Enterobacter cloacae): <0.125 µg/mL; Minimum inhibitory concentration, Ec FADDI-EC006 (Enterobacter cloacae): 0.5 µg/mL (≈ 0.43 µM)
CCCCCCC(=O)N[C@@H](CCN)C(=O)N[C@H](C(=O)N[C@@H](CN)C(=O)N[C@H]1CCNC(=O)[C@H]([C@@H](C)O)NC(=O)[C@H](CCN)NC(=O)[C@H](CCN)NC(=O)[C@H](CC)NC(=O)[C@@H](Cc2ccccc2)NC(=O)[C@H](CCN)NC1=O)[C@@H](C)O [Compound 131] (Heptanoyl-[Dab]T[Dap][Dab][Dab][dF][Abu][Dab][Dab]T; lactam 4-C) | 0.5 µg/mL (≈ 0.441 µM) | 0.5 µg/mL (≈ 0.441 µM) | 2 µg/mL (≈ 1.76 µM) | 4 µg/mL (≈ 3.53 µM) | <0.125 µg/mL | 0.25 µg/mL (≈ 0.221 µM) | 0.25 µg/mL (≈ 0.221 µM) | 0.25 µg/mL (≈ 0.221 µM) | −3.44 log10 CFU/mL | −3.80 log10 CFU/mL | −1.75 log10 CFU/mL | – | – | – | – | – | – | – | – | – | Minimum inhibitory concentration, Ab FADDI-AB034 (Acinetobacter baumannii): 0.25 µg/mL (≈ 0.221 µM); Minimum inhibitory concentration, Ec FADDI-EC001 (Enterobacter cloacae): <0.125 µg/mL; Minimum inhibitory concentration, Ec FADDI-EC003 (Enterobacter cloacae): <0.125 µg/mL; Minimum inhibitory concentration, Ec FADDI-EC006 (Enterobacter cloacae): <0.125 µg/mL
CCCCCCCCC(=O)N[C@@H](CCN)C(=O)N[C@H](C(=O)N[C@@H](CN)C(=O)N[C@H]1CCNC(=O)[C@H]([C@@H](C)O)NC(=O)[C@H](CCN)NC(=O)[C@H](CCN)NC(=O)[C@H](C)NC(=O)[C@@H](CC(C)C)NC(=O)[C@H](CCN)NC1=O)[C@@H](C)O [Compound 132] (Nonanoyl-[Dab]T[Dap][Dab][Dab][dL]A[Dab][Dab]T; lactam 4-C) | 0.5 µg/mL (≈ 0.449 µM) | 0.5 µg/mL (≈ 0.449 µM) | 1 µg/mL (≈ 0.898 µM) | 4 µg/mL (≈ 3.59 µM) | 0.25 µg/mL (≈ 0.225 µM) | 0.5 µg/mL (≈ 0.449 µM) | 0.5 µg/mL (≈ 0.449 µM) | 0.5 µg/mL (≈ 0.449 µM) | −3.16 log10 CFU/mL | −4.39 log10 CFU/mL | −1.58 log10 CFU/mL | – | – | – | – | – | – | – | – | – | Minimum inhibitory concentration, Ab FADDI-AB034 (Acinetobacter baumannii): 0.25 µg/mL (≈ 0.225 µM); Minimum inhibitory concentration, Ec FADDI-EC001 (Enterobacter cloacae): 0.25 µg/mL (≈ 0.225 µM); Minimum inhibitory concentration, Ec FADDI-EC003 (Enterobacter cloacae): <0.125 µg/mL; Minimum inhibitory concentration, Ec FADDI-EC006 (Enterobacter cloacae): <0.125 µg/mL
CC[C@H](C)CCCCC(=O)N[C@@H](CCN)C(=O)N[C@H](C(=O)N[C@H](CO)C(=O)N[C@H]1CCNC(=O)[C@H]([C@@H](C)O)NC(=O)[C@H](CCN)NC(=O)[C@H](CCN)NC(=O)[C@H]([C@@H](C)O)NC(=O)[C@@H](CC(C)C)NC(=O)[C@H](CCN)NC1=O)[C@@H](C)O [Compound 150, polymyxin D1] (X1-[Dab]T[dS][Dab][Dab][dL]T[Dab][Dab]T; lactam 4-C) | 4 µg/mL (≈ 3.5 µM) | – | – | – | 0.5 µg/mL (≈ 0.437 µM) | 0.25 µg/mL (≈ 0.218 µM) | – | – | −3.77 log10 CFU/mL | −0.29 log10 CFU/mL | −1.46 log10 CFU/mL | 4 µg/mL (≈ 3.5 µM) | 4 µg/mL (≈ 3.5 µM) | >32 µg/mL | 0.25 µg/mL (≈ 0.218 µM) | 0.25 µg/mL (≈ 0.218 µM) | 0.25 µg/mL (≈ 0.218 µM) | 0.5 µg/mL (≈ 0.437 µM) | 0.5 µg/mL (≈ 0.437 µM) | 0.5 µg/mL (≈ 0.437 µM) | –
CC(C)CCCCC(=O)N[C@@H](CCN)C(=O)N[C@H](C(=O)N[C@H](CO)C(=O)N[C@H]1CCNC(=O)[C@H]([C@@H](C)O)NC(=O)[C@H](CCN)NC(=O)[C@H](CCN)NC(=O)[C@H]([C@@H](C)O)NC(=O)[C@@H](CC(C)C)NC(=O)[C@H](CCN)NC1=O)[C@@H](C)O [Compound 151, polymyxin D2] ({Heptanoyl(6-Me)}-[Dab]T[dS][Dab][Dab][dL]T[Dab][Dab]T; lactam 4-C) | 4 µg/mL (≈ 3.54 µM) | – | – | – | 0.5 µg/mL (≈ 0.442 µM) | 0.5 µg/mL (≈ 0.442 µM) | – | – | −4.71 log10 CFU/mL | −0.40 log10 CFU/mL | −1.59 log10 CFU/mL | 4 µg/mL (≈ 3.54 µM) | 4 µg/mL (≈ 3.54 µM) | >32 µg/mL | 0.25 µg/mL (≈ 0.221 µM) | 0.5 µg/mL (≈ 0.442 µM) | 0.5 µg/mL (≈ 0.442 µM) | 0.25 µg/mL (≈ 0.221 µM) | 0.25 µg/mL (≈ 0.221 µM) | 0.25 µg/mL (≈ 0.221 µM) | –
CC[C@H](C)CCCCC(=O)N[C@@H](CCN)C(=O)N[C@H](C(=O)N[C@@H](CCN)C(=O)N[C@H]1CCNC(=O)[C@H]([C@@H](C)O)NC(=O)[C@H](CCN)NC(=O)[C@H](CCN)NC(=O)[C@H]([C@@H](C)O)NC(=O)[C@@H](CC(C)C)NC(=O)[C@H](CCN)NC1=O)[C@@H](C)O [Compound 152, polymyxin M1] (X1-[Dab]T[Dab][Dab][Dab][dL]T[Dab][Dab]T; lactam 4-C) | 1 µg/mL (≈ 0.864 µM) | – | – | – | 0.5 µg/mL (≈ 0.432 µM) | 1 µg/mL (≈ 0.864 µM) | – | – | −3.86 log10 CFU/mL | −3.24 log10 CFU/mL | −1.61 log10 CFU/mL | 1 µg/mL (≈ 0.864 µM) | 1 µg/mL (≈ 0.864 µM) | 32 µg/mL (≈ 27.6 µM) | 1 µg/mL (≈ 0.864 µM) | 1 µg/mL (≈ 0.864 µM) | 1 µg/mL (≈ 0.864 µM) | 0.5 µg/mL (≈ 0.432 µM) | 0.5 µg/mL (≈ 0.432 µM) | 0.25 µg/mL (≈ 0.216 µM) | –
CC(C)CCCCC(=O)N[C@@H](CCN)C(=O)N[C@H](C(=O)N[C@@H](CCN)C(=O)N[C@H]1CCNC(=O)[C@H]([C@@H](C)O)NC(=O)[C@H](CCN)NC(=O)[C@H](CCN)NC(=O)[C@H]([C@@H](C)O)NC(=O)[C@@H](CC(C)C)NC(=O)[C@H](CCN)NC1=O)[C@@H](C)O [Compound 153, polymyxin M2] ({Heptanoyl(6-Me)}-[Dab]T[Dab][Dab][Dab][dL]T[Dab][Dab]T; lactam 4-C) | 0.5 µg/mL (≈ 0.437 µM) | – | – | – | 0.25 µg/mL (≈ 0.219 µM) | 2 µg/mL (≈ 1.75 µM) | – | – | −3.59 log10 CFU/mL | −2.73 log10 CFU/mL | −1.26 log10 CFU/mL | 0.5 µg/mL (≈ 0.437 µM) | 4 µg/mL (≈ 3.5 µM) | >32 µg/mL | 2 µg/mL (≈ 1.75 µM) | 2 µg/mL (≈ 1.75 µM) | 1 µg/mL (≈ 0.875 µM) | 0.25 µg/mL (≈ 0.219 µM) | 0.25 µg/mL (≈ 0.219 µM) | 0.5 µg/mL (≈ 0.437 µM) | –
